Reference: patent US9751875B2, “Quinine compounds, and optical isomers, preparation method and medical use thereof” (BEIJING FSWELCOME TECHNOLOGY DEVELOPMENT CO., LTD., priority 2013, dated 2017)
Where two headings read alike, the source gives them in different places.

Key:
[1] = test system: tracheal smooth muscle from guinea pigs (contraction induced by 3 × 10^−6 mol/L of CCh); experiment: Antagonism in vitro of contraction of isolated tracheal smooth muscle from guinea pigs induced by carbachol (CCh); type: cell-based, guinea pig; conditions: cumulative dosing
Excerpt: Preparation of the Isolated Tracheal Smooth Muscle Specimen from a Guinea Pig:
After a guinea pig was narcotized with urethane, the trachea between the throat and carina of the guinea pig was taken out rapidly, and placed in the Krebs-Henseleit (K-H) solution (composition (g/L): NaCl 6.92, KCl 0.35, CaCl2 0.28, KH2PO4 0.16, MgSO4.7H2O 0.4568, NaHCO3 2.1, Glucose 2.0) with a mixture gas of 5% CO2 and 95% O2 purged. After loose connective tissues and fats around the trachea were separated, the trachea was cut into trachea pieces having a width of about 3 mm and a length of 20 mm by a surgical scissor, with both ends of the trachea piece ligated with 4˜0 silk suture, and then placed into a thermostatic bath containing 5 ml of K—H solution (pH 7.4) at 37° C., with the mixture gas of 5% CO2 and 95% O2 continuously purged. A muscle tension transducer was connected to the upper end so as to apply 1.0 g of resting tension to the specimen, the change of the tension was recorded, the culture solution was replaced every 20 min, and the test was started after being balanced for 60 min.
Administration method: After the trachea piece was stabilized, 3×10^−6 mol/L of CCh was added into a bath, and after the contractile tension of the trachea piece reached a peak level, the example compounds, ipratropium bromide and tiotropium bromide were added into a Magnus bath by a cumulative dosing regimen with a dosage of 10^−9˜10^−5 mol, respectively, and the diastolic condition of the trachea piece was observed: if no response occurred (below the threshold concentration), a next dosage was continued to be added in sequence; if response occurred, after it reached a diastolic plateau, a next dosage was further added. The above operation was repeated until the contractile curve reached the minimum value. Finally, 10^−6 mol/L of isoprenaline was added so that the maximum relaxation would be reached and the curve was recorded.
Statistical approach: The result was expressed as mean ±standard deviation, and counted by Sigma Stat statistical package. The data was analyzed by using variance analysis, the comparison among means of a plurality of specimen was performed by using Student-Newman-Keuls(SNK) test; statistical significant level α=0.05 (bilateral).
Compounds shown in Table 5 were further prepared according to the present invention, and their IC50 […] of resistance to the contraction of tracheal smooth muscle from guinea pigs induced by a concentration of 3×10^−6 mol/L of CCh was determined.

[2] = test system: tracheal smooth muscle from guinea pigs (contraction induced by 3 × 10^−6 mol/L of CCh); experiment: as above; type: cell-based, guinea pig
[3] = read-out: IC50 (μM), antagonism in vitro against the contraction of the tracheal smooth muscle induced by CCh, 3 × 10^−6 mol/L of CCh
[4] = Cavia porcellus, 3 × 10^−6 mol/L of CCh, read-out: IC50 (μM), antagonism in vitro against the contraction of the tracheal smooth muscle induced by CCh
[5] = Cavia porcellus, read-out: IC50 (μM), antagonism in vitro against the contraction of the tracheal smooth muscle induced by CCh, 3 × 10^−6 mol/L of CCh
[6] = 3 × 10^−6 mol/L of CCh, read-out: IC50 (μM), antagonism in vitro against the contraction of the tracheal smooth muscle induced by CCh

Compound	IC50 [1, 3] [µM]	Onset time [2] [min]	Time for eliminating inhibition effect (min) [2]	IC50 [1, 4] [µM]	IC50 [1, 5] [µM]	IC50 [1, 6] [µM]	Time for eliminating inhibition effect [2] [min]
OC(CO[C@H]1C[N+]2(CCCOc3ccccc3)CCC1CC2)(c1ccccc1)C1CC1.[Br-] (stereo partly drawn) [Example 20, (2S,3S)-3-[(2-cyclopropyl-2-hydroxyl-2-phenyl)ethoxyl]-1-(3-phenoxypropyl)-1-azabicyclo[2,2,2]octane bromide]	2.35	6.32	more than 300 min	–	–	–	–
OC(CO[C@@H]1C[N+]2(CCCOc3ccccc3)CCC1CC2)(c1ccccc1)C1CC1.[Br-] (stereo partly drawn) [Example 21, (2S,3R)-3-[(2-cyclopropyl-2-hydroxyl-2-phenyl)ethoxyl]-1-(3-phenoxypropyl)-1-azabicyclo[2,2,2]octane bromide]	1.35	6.79	more than 300 min	–	–	–	–
OC(CO[C@@H]1C[N+]2(CCCOc3ccccc3)CCC1CC2)(c1ccccc1)C1CC1.[Br-] (stereo partly drawn) [Example 22, (2R,3R)-3-[(2-cyclopropyl-2-hydroxyl-2-phenyl)ethoxyl]-1-(3-phenoxypropyl)-1-azabicyclo[2,2,2]octane bromide]	0.373	6.45	more than 300 min	–	–	–	–
OC(CO[C@H]1C[N+]2(CCCOc3ccccc3)CCC1CC2)(c1ccccc1)C1CC1 (stereo partly drawn) [Example 24, (2R,3R),(2S,3S) Configuration of 3-[(2-cyclopropyl-2-hydroxyl-2-phenyl)ethoxyl]-1-(3-phenoxypropyl)-1-azabicyclo[2,2,2]octane bromide]	–	6.58	more than 300 min	0.451	–	–	–
OC(CO[C@@H]1C[N+]2(CCOc3ccccc3)CCC1CC2)(c1ccccc1)C1CCCC1.[Br-] (stereo partly drawn) [Example 25, (2S,3R)-3-[(2-cyclopentyl-2-hydroxyl-2-phenyl)ethoxyl]-1-(2-phenoxyethyl)-1-azabicyclo[2,2,2]octane bromide]	–	6.36	more than 300 min	–	0.867	–	–
OC(CO[C@@H]1C[N+]2(COc3ccccc3)CCC1CC2)(c1ccccc1)C1CCCC1.[Br-] (stereo partly drawn) [Example 27, (2R,3R)-3-[(2-cyclopentyl-2-hydroxyl-2-phenyl)ethoxyl]-1-phenoxymethyl-1-azabicyclo[2,2,2]octane bromide]	–	5.89	more than 300 min	–	0.0363	–	–
OC(CO[C@@H]1C[N+]2(COCOc3ccccc3)CCC1CC2)(c1ccccc1)C1CCCC1.[Cl-] (stereo partly drawn) [Example 28, (2R,3R)-3-[(2-cyclopentyl-2-hydroxyl-2-phenyl)ethoxyl]-1-phenoxymethoxymethyl-1-azabicyclo[2,2,2]octane chloride]	–	6.06	more than 300 min	0.0264	–	–	–
OC(COC1C[N+]2(CCCOc3ccccc3)CCC1CC2)(c1cccc2ccccc12)C1CCCC1.[Br-] [Example 29, (2R,3R)-3-[(2-cyclopentyl-2-hydroxyl-2-naphthyl)ethoxyl]-1-(3-phenoxypropyl)-1-azabicyclo[2,2,2]octane bromide]	–	7.14	more than 300 min	–	0.723	–	–
OC(COC1C[N+]2(CCCOc3ccccc3)CCC1CC2)(c1ccccc1Cl)C1CCCC1.[Br-] [Example 30, (2R,3R)-3-[(2-cyclopentyl-2-hydroxyl-2-o-chlorophenyl)ethoxyl]-1-(3-phenoxypropyl)-1-azabicyclo[2,2,2]octane bromide]	–	5.98	more than 300 min	–	0.0371	–	–
OC(COC1C[N+]2(CCCOc3ccccc3)CCC1CC2)(c1cccnc1)C1CCCC1.[Br-] [Example 31, (2R,3R)-3-[(2-cyclopentyl-2-hydroxyl-2-(3-pyridyl))ethoxyl]-1-(3-phenoxypropyl)-1-azabicyclo[2,2,2]octane bromide]	–	6.37	more than 300 min	–	0.0206	–	–
OC(COC1C[N+]2(CCCOc3ccccc3)CCC1CC2)(c1ccco1)C1CCCC1.[Br-] [Example 32, (2R,3R)-3-[(2-cyclopentyl-2-hydroxyl-2-(2-furyl))ethoxyl]-1-(3-phenoxypropyl)-1-azabicyclo[2,2,2]octane bromide]	–	5.85	more than 300 min	–	0.0379	–	–
COC(COC1C[N+]2(CCCOc3ccccc3)CCC1CC2)(c1cccnc1)C1CCCC1.[Br-] [Example 33, (2R,3R)-3-[(2-cyclopentyl-2-methoxyl-2-(3-pyridyl))ethoxyl]-1-(3-phenoxypropyl)-1-azabicyclo[2,2,2]octane bromide]	–	6.17	more than 300 min	–	0.139	–	–
CC(C)[N+]1(C)[C@@H]2CC[C@H]1CC(OC(=O)C(CO)c1ccccc1)C2.[Br-] (stereo partly drawn) [ipratropium bromide, reference compound]	–	6.82	–	–	–	0.0361	185
C[N+]1(C)[C@@H]2C[C@@H](OC(=O)C(O)(c3cccs3)c3cccs3)C[C@H]1[C@@H]1O[C@@H]12 [tiotropium bromide, reference compound]	–	30.37	more than 300 min	–	0.0142	–	–
(2R,3R),(2S,3S) Configuration of 3-[(2-cyclopentyl-2-hydroxyl-2-phenyl)ethoxyl]-1-(3-phenoxypropyl)-1-azabicyclo[2,2,2]octane bromide [Example 6]	–	6.61	more than 300 min	–	–	0.156	–
(2R,3R),(2S,3S)-3-[(2-cyclohexyl-2-hydroxyl-2-phenyl)ethoxyl]-1-(3-phenoxypropyl)-1-azabicyclo[2,2,2]octane bromide [Example 12]	–	7.13	more than 300 min	–	–	0.251	–
(2R,3S),(2S,3R)-3-[(2-cyclopropyl-2-hydroxyl-2-phenyl)ethoxyl]-1-(3-phenoxypropyl)-1-azabicyclo[2,2,2]octane bromide [Example 23]	–	6.78	more than 300 min	–	–	2.02	–
